In publication PMC8639918, “Mechanism of phosphate sensing and signaling revealed by rice SPX1-PHR2 complex structure” (Nature Communications, 2021):
Where a chain is given by its changes, count along the chain named.

What was measured:
Type in all cases: binding
SPX1^1–259 [1] = target: T1, SPX1^1–259 (Oryza sativa, UniProt Q69XJ0, Y25F/K29A/K151A); assay: ITC; conditions: 25 °C; 20 mM HEPES/NaOH pH 7.5, 200 mM NaCl, 2 mM beta-mercaptoethanol
T1 construct: residues 1-259 (C-terminally truncated), N-terminal 10xHis-MsyB tag cut with TEV, E. coli BL21(DE3), monomer
T1 sequence (Q69XJ0 1-259 Y25F/K29A/K151A): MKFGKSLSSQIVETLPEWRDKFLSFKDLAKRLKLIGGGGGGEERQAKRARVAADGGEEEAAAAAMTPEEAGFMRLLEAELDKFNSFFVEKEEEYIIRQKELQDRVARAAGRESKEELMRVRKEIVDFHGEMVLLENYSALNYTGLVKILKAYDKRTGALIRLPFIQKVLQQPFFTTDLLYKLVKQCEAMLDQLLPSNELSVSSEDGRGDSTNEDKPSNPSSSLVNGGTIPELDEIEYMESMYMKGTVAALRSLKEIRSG

SPX1^1–259 [2] = target: T2, SPX1^1–259 (Oryza sativa, UniProt Q69XJ0, K147A); assay: ITC
T2 construct: residues 1-259 (C-terminally truncated), N-terminal 10xHis-MsyB tag cut with TEV, E. coli BL21(DE3), monomer
T2 sequence (Q69XJ0 1-259 K147A): T1 sequence (Q69XJ0 1-259 Y25F/K29A/K151A) with F25Y, A29K, K147A, A151K
Excerpt: ITC on SPX1^1–259 | SPX1 K147A mutation had little effect on InsP6 binding affinity

InsP6-SPX1-PHR2 complex = target: T3, InsP6-SPX1-PHR2 complex (Oryza sativa, UniProt Q69XJ0); assay: X-ray crystal structure, […] Å; conditions: basic groove between SPX1 helices α1, α2 and α4; allosteric
T3 construct: SPX1 1-198 with T4 lysozyme fused to its C-terminus (crystallisation aid) plus Se-Met PHR2 248-380 (MYB and CC domains), tags cut with TEV, E. coli BL21(DE3), 1:1 heterodimer; with Protein PHOSPHATE STARVATION RESPONSE 2
T3 sequence (Q69XJ0 1-198): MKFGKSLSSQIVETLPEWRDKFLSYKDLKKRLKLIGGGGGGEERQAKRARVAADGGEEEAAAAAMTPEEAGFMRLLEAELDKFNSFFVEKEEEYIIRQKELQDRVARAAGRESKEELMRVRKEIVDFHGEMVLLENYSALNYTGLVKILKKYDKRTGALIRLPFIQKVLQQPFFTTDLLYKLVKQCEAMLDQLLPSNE
T3 sequence (Q6Z156 with tags, fused parts or gaps V263M/L278M/L295M/L340M partner): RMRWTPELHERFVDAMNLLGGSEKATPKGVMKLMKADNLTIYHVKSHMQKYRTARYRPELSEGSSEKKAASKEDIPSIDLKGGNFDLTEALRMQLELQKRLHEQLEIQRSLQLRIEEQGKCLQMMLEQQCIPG

SPX1^1–259▵N17 = target: T4, SPX1^1–259▵N17 (Oryza sativa, UniProt Q69XJ0); assay: ITC; conditions: 25 °C; 20 mM HEPES/NaOH pH 7.5, 200 mM NaCl, 2 mM beta-mercaptoethanol
T4 construct: SPX1 1-259 without the N-terminal helix alpha1 (deltaN17, residues 1-17 deleted), N-terminal 10xHis-MsyB tag cut with TEV, E. coli BL21(DE3)
T4 sequence (Q69XJ0 18-259): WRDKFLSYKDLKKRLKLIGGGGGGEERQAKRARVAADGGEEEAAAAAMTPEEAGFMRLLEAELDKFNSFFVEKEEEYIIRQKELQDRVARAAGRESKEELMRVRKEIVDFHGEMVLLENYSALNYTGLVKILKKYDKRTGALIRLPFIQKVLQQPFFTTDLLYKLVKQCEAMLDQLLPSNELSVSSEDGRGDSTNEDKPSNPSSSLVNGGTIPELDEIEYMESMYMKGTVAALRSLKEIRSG

SPX1^1–259 [3] = target: T5, SPX1^1–259 (Oryza sativa, UniProt Q69XJ0); assay: ITC; conditions: 25 °C; 20 mM HEPES/NaOH pH 7.5, 200 mM NaCl, 2 mM beta-mercaptoethanol
T5 construct: residues 1-259 (C-terminally truncated), N-terminal 10xHis-MsyB tag cut with TEV, E. coli BL21(DE3), monomer
T5 sequence (Q69XJ0 1-259): T1 sequence (Q69XJ0 1-259 Y25F/K29A/K151A) with F25Y, A29K, A151K
Excerpt: ITC on SPX1^1–259 | In contrast to the moderate InsP6 binding ability of the wild-type protein

SPX1^1–259 [4] = target: T5, SPX1^1–259; assay: thermal shift assay (SYPRO Orange); conditions: 20 mM HEPES/NaOH pH 7.5, 200 mM NaCl; InsP6 0 to 250 μM

O=P(O)(O)O[C@H]1[C@H](OP(=O)(O)O)[C@@H](OP(=O)(O)O)[C@H](OP(=O)(O)O)[C@@H](OP(=O)(O)O)[C@H]1OP(=O)(O)O [InsP6]
Kd (SPX1^1–259 [1]): the SPX1 mutant lost its InsP6-binding activity
Kd (SPX1^1–259 [2]): 5.69 ± 1.46 µM
X-ray crystal structure, 2.6 Å (InsP6-SPX1-PHR2 complex): each captured by an SPX1 molecule via a highly basic surface groove
Kd (SPX1^1–259▵N17): 34.1 ± 1.95 µM
Kd (SPX1^1–259 [3]): 5.5 ± 0.93 µM
Tm (SPX1^1–259 [4]): InsP6 could increase the melting temperature (Tm) of SPX1 greatly
